Experiments:
liver deaminase = test: Deamination of cytosine arabinoside in rhesus monkey blood by liver deaminase; type: biochemical; conditions: one part of tetrahydrouridine to 820 parts of cytosine arabinoside
From the text: (§1) This is especially reflected in a drop in the blood level of cytosine arabinoside, usually concomitant with an increase in uracil arabinoside. This destruction of cytosine arabinoside is brought about by a deaminase enzyme present in the blood and tissues of the animal. […] For example, deamination of cytosine arabinoside in rhesus monkey blood by liver deaminase was inhibited about 90% by the addition of one part of 4-hydroxyl-1-β-D-ribofuranosyl-tetrahydro-2(1H)-pyrimidinone (tetrahydrouridine) to 820 parts of cytosine arabinoside.

[1] = Serum half life of cytosine arabinoside in beagle dogs with or without tetrahydrouridine; conditions: dog, in vivo
From the text: as §1

[2] = target: deaminase enzymes (centrifuged 25 percent homogenate of normal human liver) (Homo sapiens, UniProt P32320); test: Competitive efficacy (C.E.) test: inhibition of cytosine arabinoside deamination; conditions: 1.0 micromole tritiated Ca, pH 8.0, 37° C., 45 minutes
Method: The inhibition of cytosine arabinoside deamination by a compound is conveniently expressed in terms of its competitive efficacy (C.E.). The competitive efficacy of a compound is determined as follows:
Enzyme reaction mixture are prepared in 12-ml. centrifuge tubes in an ice bath. […] This is the standard reaction mixture. […] The tubes are then assayed for radioactive uracil arabinoside as described below, and the percent conversion of tritiated Ca to tritiated uracil arabinosie is calculated. A standard curve of the percent conversion vs. log10 of the initial ratio of untritiated Ca to tritiated Ca is plotted. This is the standard curve for the C.E. test.
Reaction mixture for C.E. test.
To determine the C.E. of a compound, known amounts of the compound are added to the above standard reaction mixture and the percent conversion of tritiated Ca to tritiated uracil arabinoside is measured. […] From this ratio and the amount of test compound in the assay reaction mixture, the C.E. is calculated. […]
After 45 minute incubation of the enzyme reaction mixtures, further reaction is stopped by the addition of one-half volume of iced, 15 percent trichloroacetic acid. […] Suitable quantities (4 microliters) of clear supernatant solution are co-chromatographed with a mixture of 40 millimicromoles each of non-tritiated carrier Ca and uracil arabinoside on Whatman No. 40 paper. […]

myelogenous leukemia = conditions: adults; 1 to 5 mg./kg. weekly intravenously or subcutaneously as maintenance; cited from earlier work

Sequence of deaminase enzymes (centrifuged 25 percent homogenate of normal human liver) (P32320 whole entry): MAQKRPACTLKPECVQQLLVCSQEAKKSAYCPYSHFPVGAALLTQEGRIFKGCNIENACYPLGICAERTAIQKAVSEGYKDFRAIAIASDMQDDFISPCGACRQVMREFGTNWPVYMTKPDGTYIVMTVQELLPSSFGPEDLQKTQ

Question: Which results are given for O=C1NC(O)CCN1[C@@H]1O[C@H](CO)[C@@H](O)[C@H]1O (single isomer, unassigned) [tetrahydrouridine, 4-hydroxy-1-β-D-ribofuranosyl-tetrahydro-2(1H)-pyrimidinone]?
Answer: inhibition of deamination of cytosine arabinoside (liver deaminase): about 90%; half life of cytosine arabinoside in the serum ([1]; iv): 2.27 to 3 h

Question: Which “Competitive Efficacy” value [2] does the source give for O=C1NCCCN1[C@@H]1O[C@H](CO)[C@@H](O)[C@H]1O [E] here?
Answer: The value was 200.

Question: Which half-life ([1]; control dogs without tetrahydrouridine, 50 mg./kg. cytosine arabinoside intravenous) does the source give for Nc1ccn([C@@H]2O[C@H](CO)[C@@H](O)[C@@H]2O)c(=O)n1 [cytosine arabinoside, 1-β-D-arabinofuranosylcytosine, reference compound] here?
Answer: Its half-life is 1.1 to 1.33 h.

Question: And the “duration of remission of myelogenous leukemia (bone marrow response)” value (myelogenous leukemia)?
Answer: Its value is “more than 203 days”.

Reference: patent US4017606A, “Organic compounds and process” (The Upjohn Company, priority 1975, dated 1977)
